# Reference: PubChem BioAssay (NCI)
#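 Here, GI50 denotes the concentration required for 50% inhibition of growth. The concentration for full growth arrest is given as TGI.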
# Experiments:
# Assay in all cases: growth of human tumour cells (NCI), 384-well format
# T-47D breast = system: T-47D breast
# U251 glioblastoma = system: U251 glioblastoma
# SF-539 CNS = system: SF-539 CNS
# K-562 leukemia = system: K-562 leukemia
# A549 NSCLC = system: A549 NSCLC
# SF-295 CNS = system: SF-295 CNS
# HCC-2998 colon = system: HCC-2998 colon
# SF-268 CNS = system: SF-268 CNS
# TK-10 renal = system: TK-10 renal
# OVCAR-8 ovarian = system: OVCAR-8 ovarian
# HL-60(TB) leukemia = system: HL-60(TB) leukemia
# OVCAR-3 ovarian = system: OVCAR-3 ovarian
# MCF7 breast = system: MCF7 breast
# UACC-257 melanoma = system: UACC-257 melanoma
# MDA-MB-435 melanoma = system: MDA-MB-435 melanoma
# SK-MEL-5 melanoma = system: SK-MEL-5 melanoma
# SW-620 colon = system: SW-620 colon
# HS 578T breast = system: HS 578T breast
# NCI/ADR-RES ovarian = system: NCI/ADR-RES ovarian
# OVCAR-4 ovarian = system: OVCAR-4 ovarian
# HOP-92 NSCLC = system: HOP-92 NSCLC
# RPMI-8226 leukemia = system: RPMI-8226 leukemia
# SN12C renal = system: SN12C renal
# ACHN renal = system: ACHN renal
# NCI-H23 lung = system: NCI-H23 lung
# A498 renal = system: A498 renal
# MDA-MB-468 breast = system: MDA-MB-468 breast
# HCT-15 colon = system: HCT-15 colon
# 786-0 renal = system: 786-0 renal
# NCI-H522 lung = system: NCI-H522 lung
# SNB-19 CNS = system: SNB-19 CNS
# MALME-3M melanoma = system: MALME-3M melanoma
# SK-MEL-2 melanoma = system: SK-MEL-2 melanoma
# SNB-75 CNS = system: SNB-75 CNS
# KM12 colon = system: KM12 colon
# UACC-62 melanoma = system: UACC-62 melanoma
# COLO 205 colon = system: COLO 205 colon
# SK-MEL-28 melanoma = system: SK-MEL-28 melanoma
# CCRF-CEM leukemia = system: CCRF-CEM leukemia
# DU-145 prostate = system: DU-145 prostate
# HT29 colon = system: HT29 colon
# PC-3 prostate = system: PC-3 prostate
# SK-OV-3 ovarian = system: SK-OV-3 ovarian
# MDA-MB-231 breast = system: MDA-MB-231 breast
# HOP-62 NSCLC = system: HOP-62 NSCLC
# M14 melanoma = system: M14 melanoma
# HCT-116 colon = system: HCT-116 colon
smiles,measurement,setting,value
C=CC(=O)N1CCN(CCCn2c(=O)c(-c3c(Cl)c(OC)cc(OC)c3Cl)cc3cnc(NC)nc32)CC1,GI50,T-47D breast,2.86 µM
same,TGI,T-47D breast,16.1 µM
same,GI50,U251 glioblastoma,3.72 µM
same,TGI,U251 glioblastoma,16 µM
same,GI50,SF-539 CNS,3.7 µM
same,TGI,SF-539 CNS,16.4 µM
same,GI50,K-562 leukemia,5.67 µM
same,TGI,K-562 leukemia,18.3 µM
same,GI50,A549 NSCLC,3.23 µM
same,TGI,A549 NSCLC,14.4 µM
same,GI50,SF-295 CNS,8.31 µM
same,TGI,SF-295 CNS,38.1 µM
same,GI50,HCC-2998 colon,9.16 µM
same,TGI,HCC-2998 colon,22 µM
same,GI50,SF-268 CNS,1.22 µM
same,TGI,SF-268 CNS,7.03 µM
same,GI50,TK-10 renal,5.98 µM
same,TGI,TK-10 renal,19.5 µM
same,GI50,OVCAR-8 ovarian,5.9 µM
same,TGI,OVCAR-8 ovarian,19.2 µM
same,GI50,HL-60(TB) leukemia,1.55 µM
same,TGI,HL-60(TB) leukemia,4.2 µM
same,GI50,OVCAR-3 ovarian,2.21 µM
same,TGI,OVCAR-3 ovarian,13.6 µM
same,GI50,MCF7 breast,7.95 µM
same,TGI,MCF7 breast,20.7 µM
same,GI50,UACC-257 melanoma,4.44 µM
same,TGI,UACC-257 melanoma,16 µM
same,GI50,MDA-MB-435 melanoma,4.33 µM
same,TGI,MDA-MB-435 melanoma,14.7 µM
same,GI50,SK-MEL-5 melanoma,2.35 µM
same,TGI,SK-MEL-5 melanoma,13.1 µM
same,GI50,SW-620 colon,3.22 µM
same,TGI,SW-620 colon,9.31 µM
same,GI50,HS 578T breast,0.327 µM
same,TGI,HS 578T breast,2.35 µM
same,GI50,NCI/ADR-RES ovarian,7.93 µM
same,TGI,NCI/ADR-RES ovarian,21.3 µM
same,GI50,OVCAR-4 ovarian,3.14 µM
same,TGI,OVCAR-4 ovarian,18 µM
same,GI50,HOP-92 NSCLC,1.61 µM
same,TGI,HOP-92 NSCLC,6.96 µM
same,GI50,RPMI-8226 leukemia,0.759 µM
same,TGI,RPMI-8226 leukemia,2.39 µM
same,GI50,SN12C renal,2.36 µM
same,TGI,SN12C renal,12.2 µM
same,GI50,ACHN renal,0.975 µM
same,TGI,ACHN renal,11.3 µM
same,GI50,NCI-H23 lung,3.72 µM
same,TGI,NCI-H23 lung,15.3 µM
same,GI50,A498 renal,0.462 µM
same,TGI,A498 renal,4.69 µM
same,GI50,MDA-MB-468 breast,0.95 µM
same,TGI,MDA-MB-468 breast,2.68 µM
same,GI50,HCT-15 colon,2.37 µM
same,TGI,HCT-15 colon,14.9 µM
same,GI50,786-0 renal,2.38 µM
same,TGI,786-0 renal,13.7 µM
same,GI50,NCI-H522 lung,2.66 µM
same,TGI,NCI-H522 lung,11.8 µM
same,GI50,SNB-19 CNS,5.11 µM
same,TGI,SNB-19 CNS,17.3 µM
same,GI50,MALME-3M melanoma,1.92 µM
same,TGI,MALME-3M melanoma,9.84 µM
same,GI50,SK-MEL-2 melanoma,1.7 µM
same,TGI,SK-MEL-2 melanoma,5.09 µM
same,GI50,SNB-75 CNS,0.211 µM
same,TGI,SNB-75 CNS,4.88 µM
same,GI50,KM12 colon,6.06 µM
same,TGI,KM12 colon,18.8 µM
same,GI50,UACC-62 melanoma,1.9 µM
same,TGI,UACC-62 melanoma,11.8 µM
same,GI50,COLO 205 colon,10.9 µM
same,TGI,COLO 205 colon,22.9 µM
same,GI50,SK-MEL-28 melanoma,15.1 µM
same,TGI,SK-MEL-28 melanoma,39.5 µM
same,GI50,CCRF-CEM leukemia,1.51 µM
same,TGI,CCRF-CEM leukemia,3.29 µM
same,GI50,DU-145 prostate,4.02 µM
same,TGI,DU-145 prostate,18.1 µM
same,GI50,HT29 colon,4.61 µM
same,TGI,HT29 colon,16.8 µM
same,GI50,PC-3 prostate,3.56 µM
same,TGI,PC-3 prostate,12.4 µM
same,GI50,SK-OV-3 ovarian,1.1 µM
same,TGI,SK-OV-3 ovarian,9.48 µM
same,GI50,MDA-MB-231 breast,3.94 µM
same,TGI,MDA-MB-231 breast,14.9 µM
same,GI50,HOP-62 NSCLC,3.06 µM
same,TGI,HOP-62 NSCLC,12.1 µM
same,GI50,M14 melanoma,2.11 µM
same,TGI,M14 melanoma,16.1 µM
same,GI50,HCT-116 colon,3.55 µM
same,TGI,HCT-116 colon,14.7 µM
